Reference: ChEMBL document CHEMBL1130940, “Combinatorial chemistry: from peptides and peptidomimetics to small organic and heterocyclic compounds” (Bioorg Med Chem Lett, 1998)

These compounds were tested against Sigma non-opioid intracellular receptor 1 (Homo sapiens, UniProt Q99720) (assay: Binding affinity for [3H]- pentazocine at sigma opioid receptor).
Sigma non-opioid intracellular receptor 1, sequence (Q99720 whole entry): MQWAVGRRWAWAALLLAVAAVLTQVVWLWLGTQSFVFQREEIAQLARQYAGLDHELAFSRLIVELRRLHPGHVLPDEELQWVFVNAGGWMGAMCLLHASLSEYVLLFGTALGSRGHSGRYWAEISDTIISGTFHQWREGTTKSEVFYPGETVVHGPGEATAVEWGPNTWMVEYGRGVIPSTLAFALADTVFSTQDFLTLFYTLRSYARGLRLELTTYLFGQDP

| SMILES | Ki [nM] |
| --- | --- |
| CC[C@@H](C)[C@H](C(=O)NCc1ccccc1)N1C(=O)[C@@H](CCCCN)N(Cc2ccccc2)C1=O | 125 |
| CC[C@H](C)[C@@H](C(=O)NCc1ccccc1)N1C(=O)[C@@H](CCCCN)N(Cc2ccccc2)C1=O | 62 |
| NCCCC[C@@H]1C(=O)N([C@@H](CC2CCCCC2)C(N)=O)C(=O)N1Cc1ccccc1 | 254 |
| NCCCC[C@@H]1C(=O)N([C@H](CC2CCCCC2)C(N)=O)C(=O)N1Cc1ccccc1 | 189 |
| NCCCCC[C@@H]1C(=O)N([C@H](CC2CCCCC2)C(N)=O)C(=O)N1Cc1ccccc1 | 3630 |
| CC[C@H](C)[C@H](C(=O)NCc1ccccc1)N1C(=O)[C@@H](CCCCCN)N(Cc2ccccc2)C1=O | 4610 |
| NCCC[C@H]1C(=O)N([C@H](CC2CCCCC2)C(N)=O)C(=O)N1Cc1ccccc1 | 406 |

The remaining lines, values ahead:

| Ki [nM] | SMILES |
| --- | --- |
| 333 | CC[C@H](C)[C@H](C(=O)NCc1ccccc1)N1C(=O)[C@@H](CCCN)N(Cc2ccccc2)C1=O |
| 435 | CCC[C@H](C(=O)NCc1ccccc1)N1C(=O)[C@@H](CCCN)N(Cc2ccccc2)C1=O |
| 64 | CCC[C@H](C(=O)NCc1ccccc1)N1C(=O)[C@H](CCCCN)N(Cc2ccccc2)C1=O |
| 2420 | CCC[C@H](C(=O)NCc1ccccc1)N1C(=O)[C@@H](CCCCCN)N(Cc2ccccc2)C1=O |
| 80 | CCC[C@H](C(=O)NCc1ccccc1)N1C(=O)[C@@H](CCCCN)N(Cc2ccccc2)C1=O |
